Results as given in EPA's ToxRefDB 2.

How the values were obtained:
[1] = test system: rabbit; conditions: Prenatal developmental toxicity study, new zealand white, Oral, Gavage/Intubation, dose end: 18 GD
[2] = test system: dog; conditions: Chronic toxicity; beagle; Oral; Capsule; dose end: 12 month; group: systemic; systemic / in life observation / body weight / body weight gain + systemic / clinical chemistry / albumin / albumin + systemic / clinical …
[3] = test system: rabbit; conditions: Prenatal developmental toxicity study, new zealand white, Oral, Gavage/Intubation, dose end: 19 GD
[4] = test system: rat; conditions: Chronic toxicity, fischer, Oral, Feed, dose end: 24 month, group: systemic
[5] = test system: dog; conditions: Chronic toxicity, beagle, Oral, Capsule, dose end: 28 day, group: systemic
[6] = test system: mouse; conditions: Carcinogenicity, cd1, Oral, Feed, dose end: 113 week, group: systemic
[7] = test system: rat; conditions: Prenatal developmental toxicity study, sprague dawley, Oral, Gavage/Intubation, dose end: 19 GD
[8] = test system: rabbit; conditions: Prenatal developmental toxicity study, new zealand white, Oral, Gavage/Intubation, dose end: 28 GD
[9] = test system: rat; conditions: Combined chronic toxicity/carcinogenicity, sprague dawley, Oral, Feed, dose end: 104 week, group: systemic
[10] = test system: mouse; conditions: Carcinogenicity, b6c3f1, Oral, Feed, dose end: 104 week, group: systemic
[11] = test system: rat; conditions: Multigenerational reproductive toxicity study, sprague dawley, Oral, Feed, dose end: 2 generation
[12] = test system: rat; conditions: Combined chronic toxicity/carcinogenicity, fischer, Oral, Gavage/Intubation, dose end: 103 week, group: systemic
[13] = test system: mouse; conditions: Combined chronic toxicity/carcinogenicity, b6c3f1, Oral, Gavage/Intubation, dose end: 103 week, group: systemic
[14] = test system: rat; conditions: Prenatal developmental toxicity study; sprague dawley; Oral; Gavage/Intubation; dose end: 19 GD; group: maternal; systemic / in life observation / body weight / body weight gain + systemic / in life observation / food consumption / food consumption + …
[15] = test system: rat; conditions: Peri- and post-natal toxicity study (Segment III), sprague dawley, Oral, Gavage/Intubation, dose end: 40 PND
[16] = group: developmental, developmental / developmental malformation / bone / [other] + developmental / developmental malformation / bone / misshapen fontanel + …
[17] = group: maternal, reproductive / reproductive performance / aborted / aborted + reproductive / reproductive performance / resorptions / resorptions + systemic…
[18] = group: developmental, developmental / developmental malformation / bone / unossified
[19] = group: developmental, developmental / developmental malformation / bone / unossified + developmental / developmental malformation / bone / delayed ossification + …
[20] = group: maternal, systemic / in life observation / body weight / body weight gain + systemic / in life observation / food consumption / food consumption + …
[21] = systemic / pathology microscopic / stomach / hyperkeratosis
[22] = systemic / pathology microscopic / stomach / hyperkeratosis + systemic / in life observation / body weight / body weight gain + systemic / …
[23] = systemic / in life observation / clinical signs / emesis + systemic / organ weight / liver / absolute + systemic / organ weight / brain / …
[24] = systemic / hematology / hematocrit (hct) / hematocrit (hct) + systemic / in life observation / clinical signs / weakness + systemic / …
[25] = group: developmental, developmental / developmental malformation / bone / incomplete ossification + developmental / developmental malformation / bone / misaligned…
[26] = group: maternal, systemic / in life observation / body weight / body weight gain + systemic / in life observation / clinical signs / respiration (rales)
[27] = group: maternal, systemic / in life observation / body weight / body weight gain + systemic / in life observation / clinical signs / respiration (rales) + …
[28] = group: developmental, developmental / developmental malformation / bone / domed head + developmental / developmental malformation / bone / misshapen fontanel + …
[29] = group: maternal, systemic / in life observation / food consumption / food consumption
[30] = systemic / pathology microscopic / stomach / acanthosis + systemic / pathology microscopic / stomach / erosion + systemic / pathology …
[31] = systemic / pathology microscopic / testes / interstitial cell tumor nos + systemic / pathology microscopic / thyroid gland / adenoma/…
[32] = systemic / pathology microscopic / stomach / hyperkeratosis + systemic / pathology microscopic / intestine small / carcinoma + systemic / …
[33] = systemic / pathology microscopic / stomach / hyperkeratosis + systemic / pathology microscopic / intestine small / hyperplasia + systemic / …
[34] = group: offspring, systemic / in life observation / body weight / offspring (pup) weight
[35] = group: parental, systemic / in life observation / body weight / body weight + systemic / in life observation / body weight / body weight gain + systemic / in…
[36] = group: reproductive, reproductive / reproductive performance / fertility / fertility
[37] = systemic / pathology microscopic / blood / leukemia mononuclear + systemic / in life observation / body weight / body weight
[38] = systemic / pathology microscopic / liver / vacuolization cytoplasmic
[39] = systemic / pathology microscopic / liver / vacuolization cytoplasmic + systemic / in life observation / body weight / body weight
[40] = group: maternal, reproductive / reproductive performance / estrous cycle / corpora lutea
[41] = group: parental, systemic / organ weight / liver / absolute + systemic / organ weight / thyroid gland / absolute + systemic / pathology microscopic / ovary…
[42] = group: parental, systemic / organ weight / liver / absolute + systemic / pathology microscopic / ovary / follicle count + systemic / pathology microscopic / …

SMILES: O=C1c2ccccc2C(=O)N1SC(Cl)(Cl)Cl [Folpet]
- LEL [1, 16]: 60 mg/kg/day
- LOAEL [1, 16]: > 60 mg/kg/day
- NEL [1, 16]: < 60 mg/kg/day
- NOAEL [1, 16]: ≥ 60 mg/kg/day
- LEL [1, 17]: 60 mg/kg/day
- LOAEL [1, 17]: > 60 mg/kg/day
- NEL [1, 17]: < 60 mg/kg/day
- NOAEL [1, 17]: ≥ 60 mg/kg/day
- LEL [2]: 60 mg/kg/day
- LOAEL [2]: 60 mg/kg/day
- NEL [2]: 10 mg/kg/day
- NOAEL [2]: 10 mg/kg/day
- LEL [3, 18]: 40 mg/kg/day
- LOAEL [3, 18]: 40 mg/kg/day
- NEL [3, 19]: 10 mg/kg/day
- NOAEL [3, 19]: 10 mg/kg/day
- LOAEL ([3]; group: maternal, systemic / in life observation / body weight / body weight gain + systemic / in life observation / food consumption / food consumption): 160 mg/kg/day
- LEL [3, 20]: 160 mg/kg/day
- NEL [3, 20]: 40 mg/kg/day
- NOAEL [3, 20]: 40 mg/kg/day
- LEL [4, 21]: 81 mg/kg/day
- LOAEL [4, 21]: 81 mg/kg/day
- NEL [4, 22]: 12 mg/kg/day
- NOAEL [4, 22]: 12 mg/kg/day
- LOAEL ([5]; systemic / in life observation / body weight / body weight gain + systemic / in life observation / body weight / body weight): 60 mg/kg/day
- NOAEL ([5]; systemic / in life observation / body weight / body weight gain + systemic / in life observation / body weight / body weight + systemic / in…): 20 mg/kg/day
- LEL [5, 23]: 20 mg/kg/day
- NEL [5, 23]: < 20 mg/kg/day
- LEL [6, 24]: 93 mg/kg/day
- NEL [6, 24]: < 93 mg/kg/day
- LOAEL ([6]; systemic / pathology microscopic / intestine small / hyperplasia): 1280 mg/kg/day
- NOAEL ([6]; systemic / pathology microscopic / intestine small / hyperplasia + systemic / pathology microscopic / intestine small / adenocarcinoma + …): 502 mg/kg/day
- LEL [7, 25]: 360 mg/kg/day
- LOAEL [7, 25]: 360 mg/kg/day
- NEL [7, 25]: 60 mg/kg/day
- NOAEL [7, 25]: 60 mg/kg/day
- LEL [7, 26]: 60 mg/kg/day
- LOAEL [7, 26]: 60 mg/kg/day
- NEL [7, 27]: 10 mg/kg/day
- NOAEL [7, 27]: 10 mg/kg/day
- LEL [8, 28]: 20 mg/kg/day
- LOAEL [8, 28]: 20 mg/kg/day
- NEL [8, 28]: 10 mg/kg/day
- NOAEL [8, 28]: 10 mg/kg/day
- LEL [8, 29]: 20 mg/kg/day
- LOAEL [8, 29]: 20 mg/kg/day
- NEL [8, 29]: 10 mg/kg/day
- NOAEL [8, 29]: 10 mg/kg/day
- LOAEL [9, 30]: 35 mg/kg/day
- NOAEL [9, 30]: 9 mg/kg/day
- LEL [9, 31]: 9 mg/kg/day
- NEL [9, 31]: < 9 mg/kg/day
- LOAEL [10, 32]: 150 mg/kg/day
- NOAEL [10, 32]: < 150 mg/kg/day
- LEL [10, 33]: 150 mg/kg/day
- NEL [10, 33]: < 150 mg/kg/day
- LEL [11, 34]: 180 mg/kg/day
- LOAEL [11, 34]: 180 mg/kg/day
- NEL [11, 34]: 40 mg/kg/day
- NOAEL [11, 34]: 40 mg/kg/day
- LOAEL [11, 35]: 180 mg/kg/day
- NEL [11, 35]: 10 mg/kg/day
- NOAEL [11, 35]: 40 mg/kg/day
- LEL ([11]; group: parental, systemic / in life observation / food consumption / food consumption): 40 mg/kg/day
- LEL [11, 36]: 180 mg/kg/day
- LOAEL [11, 36]: 180 mg/kg/day
- NEL [11, 36]: 40 mg/kg/day
- NOAEL [11, 36]: 40 mg/kg/day

SMILES: C=CCN=C=S [Allyl isothiocyanate]
- LOAEL ([12]; systemic / in life observation / body weight / body weight): 25 mg/kg/day
- NOAEL ([12]; systemic / in life observation / body weight / body weight + systemic / pathology microscopic / blood / leukemia mononuclear + systemic / …): 12 mg/kg/day
- LEL [12, 37]: 12 mg/kg/day
- NEL [12, 37]: < 12 mg/kg/day
- LEL [13, 38]: 12 mg/kg/day
- NEL [13, 38]: < 12 mg/kg/day
- LOAEL [13, 39]: > 25 mg/kg/day
- NOAEL [13, 39]: ≥ 25 mg/kg/day

SMILES: CCCCOC(=O)c1ccc(O)cc1 [Butylparaben]
- LEL [14]: 1000 mg/kg/day
- LOAEL [14]: > 1000 mg/kg/day
- NEL [14]: 100 mg/kg/day
- NOAEL [14]: ≥ 1000 mg/kg/day
- LEL [15, 40]: 62.5 mg/kg/day
- LOAEL [15, 40]: > 1000 mg/kg/day
- NEL [15, 40]: < 62.5 mg/kg/day
- NOAEL [15, 40]: ≥ 1000 mg/kg/day
- LOAEL [15, 41]: > 1000 mg/kg/day
- NOAEL [15, 41]: ≥ 1000 mg/kg/day
- LEL [15, 42]: 62.5 mg/kg/day
- NEL [15, 42]: < 62.5 mg/kg/day
